We go through ten molecules from patent US4927941A, “Fluorine-containing nitroazole derivatives and radiosensitizer comprising the same” (Yasunori Nishijima & Daikin Industries Ltd., priority 1987, dated 1990).

Where only a bound is given, the exact number is not on record here.

The test system of one data set is EMT-6 tumor cells. Kind of data set: Radiosensitization effect on tumor transplanted in animal (ER in vivo). Details: species or system Balb/c mouse. Conditions: in a low concentration.
Data set [1] has as its system hypoxic cells. The conditions noted are these: versus no Misonidazole; cited from earlier work.
For data set [2], the system named is hypoxic cells. Conditions: administered in human beings; cited from earlier work.

Method for EMT-6 tumor cells: To both thighs of male Balb/c mouse (8 weeks; 4 mice in a group), 10^5 of EMT-6 tumor cells were subcutaneously inoculated. After the diameter of the tumor reached about 1 cm, a solution of a compound to be examined in saline was intraperitonealy administered (200 mg/kg). After 40 minutes from the administration, X-ray was irradiated at a dose rate of 450 rad/min. for 5 minutes and then the mouse was sacrificed.
After the mouse was systemically sterilized, the tumor was taken out and the tissue was homogenated. Then, 22 ml of trypsin was added to the homogenate and stirred for 50 minutes at 37° C. The number of cells in the supernatant was counted. A predetermined amount of the cells was introduced in a plastic plate having a diameter of about 5 cm. To the plate, 5 ml of medium was added and cultured in a CO2 incubator. The plates containing the irradiated and unirradiated cells were removed from the incubator after 9 days and 10 days incubation, respectively. The cells were fixed by methanol and stained by Giemsa stain. Then, the number of colonies formed were counted.
The survival rate was calculated with using the unirradiated cells as control.

With `COCCNC(=O)C(F)(F)Cn1cnc([N+](=O)[O-])n1` [(2), 3-(3'-nitro-1',2',4'-triazol-1'-yl)-2,2-difluoropropionic acid methoxyethylamide], the LD50 in “in vivo” was over 3000 mg/kg.

Take `O=C(NCCO)C(F)(F)Cn1cnc([N+](=O)[O-])n1` [(3), 3-(3'-nitro-1',2',4'-triazol-1'-yl)-2,2-difluoropropionic acid hydroxyethylamide]: the LD50 in “in vivo” worked out at 1600 mg/kg.

On to `COCC(F)Cn1cnc([N+](=O)[O-])n1` (stereo not drawn) [(7), 1-(2'-fluoro-3'-methoxypropyl)-3-nitro-1,2,4-triazole], for which the LD50 in the data set “in vivo” is over 2000 mg/kg.

On to `O=[N+]([O-])c1ncn(CC(O)CF)n1` (stereo not drawn) [(13), 1-(3'-fluoro-2'-hydroxypropyl)-3-nitro-1,2,4-triazole], for which the “ER in vivo in comparison with comparative compounds (1) and (2)” value with EMT-6 tumor cells is reported as “comparable”. Further, the LD50 in “in vivo” was 700 mg/kg.

Consider `NC(=O)C(F)(F)Cn1cnc([N+](=O)[O-])n1` [(43), 3-(3'-nitro-1',2', 4'-triazol-1'-yl)-2,2-difluoropropionamide], for which the LD50 in the data set “in vivo” turned out to be 700 mg/kg.

Regarding `CC(C)NC(=O)C(F)(F)Cn1cnc([N+](=O)[O-])n1` [(53), 3-(3'-nitro-1', 2', 4'-triazol-1'-yl)-2,2-difluoropropionic acid isopropylamide], the LD50 in “in vivo” was found to be 600 mg/kg.

As for `CC(O)CNC(=O)C(F)(F)Cn1cnc([N+](=O)[O-])n1` (stereo not drawn) [(60), 3-(3'-nitro-1', 2', 4'-triazol-1'-yl)-2,2-difluoropropionic acid isopropanolamide], the LD50 in “in vivo” worked out at 1200 mg/kg.

`NC(=O)CCNC(=O)C(F)(F)Cn1cnc([N+](=O)[O-])n1` [(62), 1-(3'-nitro-1',2',4'-triazol-1'-yl)-2,2-difluoropropionic acid 3-alanylamide] came in with an LD50 in the data set “in vivo” of 1500 mg/kg.

Molecule `O=[N+]([O-])c1ncn(CC(F)COCC(O)CO)n1` (stereo not drawn) [(65), 1-(2'-fluoro-4'-oxo-6',7'-dihydroxyheptyl)-3-nitro-1,2,4-triazole] showed an LD50 in “in vivo” of 1600 mg/kg.

Turning to `COCC(O)Cn1ccnc1[N+](=O)[O-]` (stereo not drawn) [Misonidazole, 1-(2-Nitro-1-imidazolyl)-3-methoxy-2-propanol], in the data set with hypoxic cells [1], the “effectiveness as hypoxic cell sensitizer” value was “about twice as effective as when no Misonidazole is used”. Further, in the data set on hypoxic cells [2], the “sensitizing effect in human beings” value is reported as “No sensitizing effect was confirmed”.

By LD50 is commonly meant the dose at which mortality reaches 50%. A higher LD50 goes with a less toxic substance.
